Test results taken from patent US7312302B2, “Compositions for the detection of enzyme activity in biological samples and methods of use thereof” (Oncolmmunin, Inc., priority 1997, dated 2007).
Non-standard residues stand in square brackets, D forms with d. Primed or numbered codes have the meaning given here. No end group written: not given here. *: point of attachment. F1 = 5-carboxytetramethylrhodamine (donor fluorophore); F1(3) = carboxytetramethylrhodamine; Fmoc = O=C(OCC1c2ccccc2-c2ccccc21)*; code B = not defined here; code J = not defined here; Cbz = O=C(OCc1ccccc1)*; F1″ = not defined here; C5 = not defined here

Tested on: not given
Assay: not given
Conditions: doubly labeled NorFes, Packard et al. 1998; cited from earlier work

Molecule	free energy of activation of disruption of homodimers
CN(C)c1ccc2c(-c3ccccc3C(=O)[O-])c3ccc(N(C)C)cc3[o+]c2c1 [tetramethylrhodamine]	at least 1.7 kcal/mole
diethylrhodamine	2.4 kcal/mol

Same assay, conditions: free dye in solution; cited from earlier work

Molecule	concentration above which ground-state dimerization of free dye in solution was observed
CCN(CC)c1ccc2c(-c3ccccc3C(=O)O)c3ccc(=[N+](CC)CC)cc-3oc2c1.[Cl-] [Rhodamine B]	higher than 6×10^−4 M
O=C1OC2(c3ccccc31)c1cc(Br)c(O)c(Br)c1Oc1c2cc(Br)c(O)c1Br [Eosin]	higher than 2.8×10^−2 M

Target: T1, CPP32 protease (Homo sapiens, UniProt P42574)
T1 construct: served as a direct measure of the intracellular CPP32 protease activity; endogenous in cells
T1 sequence (P42574 29-277): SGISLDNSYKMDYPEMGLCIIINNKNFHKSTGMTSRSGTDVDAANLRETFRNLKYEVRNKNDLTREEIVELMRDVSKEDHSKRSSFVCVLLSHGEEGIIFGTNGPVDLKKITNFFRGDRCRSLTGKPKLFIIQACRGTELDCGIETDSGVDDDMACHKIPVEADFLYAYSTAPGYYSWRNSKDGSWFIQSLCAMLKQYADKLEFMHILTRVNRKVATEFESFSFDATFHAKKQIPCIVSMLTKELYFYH
Assay: Cell lysate hydrolysis of DEVD-AFC, competitive substrate inhibition (anti-Fas-stimulated Jurkat cell lysate)
Type: biochemical
Conditions: concentration raised to 25 μM; 50 μM DEVD-AFC, 37° C.
Protocol: The level of CPP32 protease activity in the 6 hr ant-Fas-stimulated Jurkat cell lysate was examined using the protease substrate, DEVD-AFC (where AFC is aminofluoromethyl coumarin) 50 μM substrate concentration at 37° C. The buffer used was 50 mM HEPES, pH7.5, 10% w/v sucrose, 0.1% w/v CHAPS.) Fluorescence intensity changes were monitored with an SLM 48000 spectrofluorometer. […] As the concentrations of DEVD, DEVN, and ICE were raised to 25 μM, the rate of DEVD-AFC hydrolysis was decreased.

Molecule	rate of DEVD-AFC hydrolysis in presence of substrate
K[F1]DBDEVNGIDPK[F1]GY (K(F1″)D[code B]DEVNGIDPK(F1″)GY; reading uncertain; also: printed as K[F1]DBDEVNGIDPK[F1]GY) [Compound 7]	decreased
K[F1]DBDEVDGIDPK[F1]GY (K(F1″)D[code B]DEVDGIDPK(F1″)GY; reading uncertain; also: printed as K[F1]DBDEVDGIDPK[F1]GY) [Compound 5]	decreased
K[F1]DYBADGIDPK[F1]GY (K(F1″)DY[code B]ADGIDPK(F1″)GY; reading uncertain; also: printed as K[F1]DYBADGIDPK[F1]GY) [Compound 9]	decreased

Tested on: DEVDase activity (caspase 3/7)
Assay: DEVDase activity in apoptotic thymocyte extract using PhiPhiLux substrate, with protease inhibitors
Type: biochemical, mouse
Conditions: apoptotic thymocyte extract, FIG. 5
Protocol: FIG. 5 illustrates the inhibition of DEVDase activity in apoptotic thymocyte extract using PhiPhiLux™ substrate. An extract of mouse thymocytes exposed to 0.1 mM dexamethasone for 6 h was incubated in fluorometer cuvettes at 37° C. with 10 mM PhiPhiLux™ substrate with or without the indicated protease inhibitors. Enzymatic activity was calculated from the rate of increase of fluorescence.
Single cell suspensions of thymocytes were cultured in RPMI 1640 with 10% FCS at a concentration of 10 6 cells/ml. Dexamethasone (final concentration, 0.1 mM) and ZVAD (OMe)FMK (final concentration, 50 mM) were added at the indicated times from stock solutions in DMSO (100 mM for dexamethasone and 200 mM for ZVAD[OMe]FMK). For antiFas stimulation, wells in a 24 well plate were coated with antiFas antibody (20 mg/ml; […] per well) overnight at 378 C. After twice washing the wells with medium containing 10% FCS, 4 3 10 6 thymocytes were added per well. After culture at 378 C in a 5% CO2 atmosphere for the indicated times, cells were centrifuged and resuspended in 75 ml of each substrate (10 mM) in 1.5 ml Eppendorf tubes. The open tubes were placed in the CO2 incubator for an additional 60 min. After washing in saline, cells were analyzed by flow cytometry. Caspase activity measurements in extracts with several known inhibitors and noninhibitors were carried out using fluorometers from Photon Technology International and SLMAMINCO. Cell lysates were prepared using a cell lysate buffer consisting of 50 mM Hepes, pH 7.5, 10% (wt/vol) sucrose, 0.1% (wt/vol) CHAPS, 0.5% (wt/vol) Triton X100, and 10 mM DTT. The substrate (10 mM) was prepared in 50 mM Hepes, pH 7.5, with 10 mM DTT. All measurements were made at 378 C using a thermostated cell holder in a 150 ml quartz cuvette (3 3 3. 45 mm; Starna Cells, Inc.). The temperature of the substrate solution was preequilibrated for 20 min, ensuring temperature equilibration by having a flat base line before cell lysate addition. A 10 ml aliquot from an apoptotic thymocyte lysate was added to 110 ml of substrate solution. The fluorescence intensity was then monitored for 30-60 min. The initial velocity was calculated from the linear portion of the fluorescence increase. Various amounts of inhibitors were added to the cell lysate for 20 min before addition of the cell lysate mixture to the substrate solution.
The caspase substrates used in these studies were based on optimal peptide recognition motifs for various caspases as reported by peptide library studies (2) and are described in Table I. To assess whether cleavage of these substrates in apoptotic thymocytes was due to caspases, we examined extracts from untreated fresh thymocytes, or from thymocytes treated with dexamethasone.

Molecule	inhibition of apoptotic DEVDase activity
CC(=O)N[C@@H](CC(=O)O)C(=O)N[C@@H](CCC(=O)O)C(=O)N[C@H](C(=O)N[C@H](C=O)CC(=O)O)C(C)C [DEVDCHO]	complete inhibition
NC(=O)CI [iodoacetamide]	inhibition
CC(=O)N[C@@H](CC(C)C)C(=O)N[C@@H](CC(C)C)C(=O)N[C@H](C=O)CCCNC(=N)N [leupeptin]	lack of inhibition
CC(C)C[C@H](NC(=O)[C@H]1O[C@@H]1C(=O)O)C(=O)NCCCCN=C(N)N [Compound E64]	lack of inhibition

Same assay, conditions: on a cell basis

Molecule	cleavage by apoptotic thymocyte extracts relative to fresh thymocyte extracts [fold]
KDPC5GDEVDGIDGC5PKGY (KDP[C5]GDEVDGIDG[C5]PKGY; reading uncertain; also: printed as KDPC5GDEVDGIDGC5PKGY) [PhiPhiLux, cell-permeable fluorogenic caspase 3/7 substrate from OncoImmunin, Inc]	25

Tested on: Jurkat cells, HL-60 cells, human lymphocyte lines, A1.1 cells, murine primary thymocytes
Assay: Cellular uptake of substrates by fluorescence microscopy, flow cytometry, HPLC
Type: cell-based
Conditions: viable cells
Protocol: The compounds listed in Table 6 were synthesized and assayed for cellular uptake. Cellular internalization of the substrates was tested using Jurkat cells (a human acute T cell leukemic line), HL-60 cells (a human promyelocytic leukemic line), human lymphocyte lines, A1.1 cells (a murine T-cell line), and murine primary thymocytes. Procedures used in determining substrate uptake by viable cells are provided in Example 6 (for the HPLC procedures), in Example 2 (for the fluorescence microscopic analysis), and in Example 3 (for the flow cytometric analysis) a summary of these analyses with respect to cellular uptake of substrates is presented in this example.
The elastase substrate, Fm—K[F1]DAIPNluSIPK[F1]GY (SEQ ID NO:185), (where F1 was carboxytetramethylrhodamine, Fm was Fmoc, K[F1] was F1 covalently attached through the epsilon amino group of lysine (K), and Fm—K is the Fmoc group covalently attached at the alpha amino group of the amino terminal lysine residue) was used with HL-60 cells. Cells were incubated with various concentrations of elastase substrate ranging from 10 nM to 10 μM for 5 minutes to 60 minutes. Then the cells were diluted 5-fold with RPMI 1640 medium containing 5% serum or with phosphate buffered saline. The samples were centrifuged and washed once more with 1 ml of washing solution. After centrifugation and removal of the washing solution, cell pellets were loosened with about 25 ul of medium and these cells were transferred to a glass capillary. Capillary tubes were then placed on a glass microscope slide and examined under a fluorescence microscope using standard rhodamine filters.
For apoptosis-related protease activity determination, 10 μM concentration of the compounds listed in Example 8 (compound structures 2 through 13) were incubated with cells for 30 min. to 3 hours. The cells were then washed similarly twice. Using glass capillary tubes, the washed cells were transferred and examined under a fluorescence microscope.
The concentration of substrates used in flow cytometric analysis was 10 M in RPMI1640 medium containing 4 to 10% fetal calf serum. Cell densities during incubation with the chosen substrates ranged from 50,000 cells per ml to 4,000,000 per ml. Incubation times were from 30 min. to 3 hours at 37° C. and incubation volumes were 50 μL to 2 ml. After incubation with substrate for 30 to 60 min. cell suspensions were diluted 10-fold with ice cold Hank's Buffered Saline Solution (HBSS). This filtered cell suspension was then subjected to flow cytometric analysis using a 488 nm excitation source. Becton Dickenson, Inc.'s flow cytometer, FacSort, was used in the flow cytometric analysis. Typically, 10,000 to 30,000 events per sample were collected.

Molecule	cellular uptake (Table 6)
Fm-K[F1]DBDEVDGIDPK[F1]GY (Fmoc-K(F1″)D[code B]DEVDGIDPK(F1″)GY; reading uncertain; also: printed as Fm-K[F1]DBDEVDGIDPK[F1]GY) [Compound 4]	efficient cellular uptake
Fm-K[F1]DBEVDGIDPK[F1]GY (Fmoc-K(F1″)D[code B]EVDGIDPK(F1″)GY; reading uncertain; also: printed as Fm-K[F1]DBEVDGIDPK[F1]GY) [Compound 8]	efficient cellular uptake
K[F1]DBDEVNGIDPK[F1]GY (K(F1″)D[code B]DEVNGIDPK(F1″)GY; reading uncertain; also: printed as K[F1]DBDEVNGIDPK[F1]GY) [Compound 7]	not optimum for cellular uptake
Fm-K[F1]DBDEVNGIDPK[F1]GY (Fmoc-K(F1″)D[code B]DEVNGIDPK(F1″)GY; reading uncertain; also: printed as Fm-K[F1]DBDEVNGIDPK[F1]GY) [Compound 6]	efficient cellular uptake
K[F1]DBDEVDGIDPK[F1]GY (K(F1″)D[code B]DEVDGIDPK(F1″)GY; reading uncertain; also: printed as K[F1]DBDEVDGIDPK[F1]GY) [Compound 5]	not optimum for cellular uptake
Z-K[F1]DBJGDEVDGIDGJPK[F1]GY (Cbz-K(F1″)D[code B][code J]GDEVDGIDG[code J]PK(F1″)GY; reading uncertain; also: printed as Z-K[F1]DBJGDEVDGIDGJPK[F1]GY) [Compound 12]	efficient cellular uptake
K[F1]DAIPNluSIPK[F1]GY [Compound 2]	not optimum for cellular uptake
Fm-K[F1]DAIPNluSIPK[F1]GY [Compound 1]	efficient cellular uptake
Fm-K[F1]DBGDEVDGIDGPK[F1]GY (K(F1)D[code B]GDEVDGIDGPK(F1)GY; not fully specified (N-terminus); printed as Fm-K[F1]DBGDEVDGIDGPK[F1]GY; reading uncertain) [Compound 10]	efficient cellular uptake
K[F1]DYBADGIDPK[F1]GY (K(F1″)DY[code B]ADGIDPK(F1″)GY; reading uncertain; also: printed as K[F1]DYBADGIDPK[F1]GY) [Compound 9]	not optimum for cellular uptake
Fm-DAIPNluSIPK[F1]GY [Compound 3]	does not result in significant cellular uptake

Tested on: not listed separately
Assay: Ground-state (H-type) dimer formation by absorption spectroscopy
Type: physicochemical
Conditions: homodoubly-labeled peptides
From the text: This was indicated by shift of absorption maxima to shorter wavelengths as well as a shape change of the absorption spectra as compared with the spectra for the enzyme digested doubly-labeled samples. Upon cleavage with elastase, the ground-state dimers were destroyed and the resulting spectra were the same as a solution containing equal concentrations of the respective singly labeled peptides.
For example, NorFes, an undecapeptide which is cleaved by the serine protease elastase, was homodoubly labeled on opposite sides of its cleavage site with six fluorophores in order to identify structural elements of dyes which influence intramolecular H-type dimer formation.

Molecule	dye-dye (ground-state, H-type) dimer formation / spectral change
F1-DEVDGIDPK[F1]GY ({F1(3)}-DEVDGIDPK(F1(3))GY)	did not allow the formation of productive H-type dimers
F1-PDEVDGIDPK[F1]GY ({F1(3)}-PDEVDGIDPK(F1(3))GY)	did not allow the formation of productive H-type dimers
c1cc2ccc3cccc4ccc(c1)c2c34 [pyrene]	No spectral changes were observed
